pIC50: −log10 of the molar value.
Experiments:
human HIPK1 = molecular target: T1, human HIPK1 (Homo sapiens, UniProt Q86Z02); assay: HIPK1 enzyme assay (ADP-Glo); type: biochemical; details: ADP-Glo, ATP 5 μM; read-out: HIPK1 IC50
T1 construct: Recombinant human HIPK1 (156-555); GST (N); purchased SignalChem H03-11G; host or cells: Sf9 insect cells
Method: The ability of compounds to inhibit human HIPK1 kinase activities was determined using a commercially available ADP-Glo™ Kinase Assay kit (Promega, Cat #V9102) according to the manufacturer's protocol.
(§1) Recombinant human HIPK1 (156-555) (expressed in Sf9 insect cells with an N-terminal GST tag) was purchased from SignalChem (Cat #H03-11G). Recombinant full length human MBP (expressed in E. Coli cells with an N-terminal GST tag) was purchased from SignalChem (Cat #M42-54G). This assay, run in a 384-well plate format, is a generic method for measuring kinase activities using an ADP-Glo Kinase Assay Kit. The basic assay procedure involves two steps: (1) Enzymatic step: inhibitors are incubated with the kinase and then ATP (included in the ADP-Glo Kinase Assay Kit) and the MBP protein are added to start the enzymatic reaction; (2) Detection step: after the kinase reaction, first ADP-Glo™ Reagent is added to terminate the kinase reaction and deplete the remaining ATP. Second, the Kinase Detection Reagent is added to simultaneously convert ADP to ATP and allow the newly synthesized ATP to be measured using a luciferase/luciferin reaction. The light generated is measured using a luminometer.
(§2) Briefly, HIPK1 (4 nM) in the enzymatic buffer solutions (40 mM Tris, pH 7.5, 20 mM MgCl2, 0.1 mg/ml BSA, 50 μM DTT) were mixed with various concentrations of inhibitors (dissolved in 100% DMSO). These solutions were incubated for 30 minutes at 25° C., and subsequently a mixture of substrate peptide and ATP was added with the final peptide and ATP concentrations at 0.05 mg/ml and 5 μM, respectively. The final reaction mixture of enzyme-substrate-ATP-compound was incubated for 90 minutes at 25° C.
(§3) Afterwards ADP-Glo™ Reagent was added and the mixture was incubated at 25° C. for 60 minutes. Then Kinase Detection Reagent was added, and the final mixture was incubated at 25° C. for 60 minutes. The luminescence signal of the final solution was measured on an Envision instrument (PerkinElmer). The percent (%) inhibition at each concentration of a compound is calculated relative to the luminescence signal in the Max and Min control wells contained within each assay plate. […] The concentrations and percent inhibition values for a test compound are plotted and the concentration of the compound required to achieve 50% inhibition (IC50) is determined with a four-parameter logistic dose response equation.

human GSK3 beta = molecular target: T2, human GSK3 beta (Homo sapiens, UniProt P49841); assay: GSK3 beta enzyme assay (ADP-Glo); type: biochemical; details: ATP 25 μM, read-out: GSK3b IC50
T2 construct: Recombinant full-length human GSK3 beta (expressed in Sf9 insect cells with an N-terminal His tag); His (N); purchased SignalChem G09-10H; host or cells: Sf9 insect cells
Method: 1. GSK3 Beta Enzyme Assay
The ability of compounds to inhibit human GSK3 beta kinase activities was determined using a commercially available ADP-Glo™ Kinase Assay kit (Promega, Cat #V9102) according to the manufacturer's protocol. The ADP-Glo™ Kinase Assay is a luminescent ADP detection assay that provides a universal, homogeneous, high-throughput screening method to measure kinase activity by quantifying the amount of ADP produced during a kinase reaction. The ADP-Glo™ Kinase Assay can be used to monitor the activity of virtually any ADP-generating enzymes (e.g., kinases or ATPases).
as §1, with “Recombinant full-length” for “Recombinant”, “GSK3 beta” for “HIPK1 (156-555)”, “His” for “GST”, “#G09-10H). The GSK3 substrate peptide (sequence: […](pS)EDEEE)” for “#H03-11G). Recombinant full length human MBP (expressed in E. Coli cells with an N-terminal GST tag)”, “#G50-58).” for “#M42-54G).”, “GSK3 substrate peptide” for “MBP protein”
as §2, with “Briefly, GSK3 beta” for “Briefly, HIPK1”, “at 13 μM” for “at 0.05 mg/ml”, “and 25” for “and 5”, “for 60” for “for 90”
as §3, with “added” for “added,”

T1 sequence (Q86Z02 156-555): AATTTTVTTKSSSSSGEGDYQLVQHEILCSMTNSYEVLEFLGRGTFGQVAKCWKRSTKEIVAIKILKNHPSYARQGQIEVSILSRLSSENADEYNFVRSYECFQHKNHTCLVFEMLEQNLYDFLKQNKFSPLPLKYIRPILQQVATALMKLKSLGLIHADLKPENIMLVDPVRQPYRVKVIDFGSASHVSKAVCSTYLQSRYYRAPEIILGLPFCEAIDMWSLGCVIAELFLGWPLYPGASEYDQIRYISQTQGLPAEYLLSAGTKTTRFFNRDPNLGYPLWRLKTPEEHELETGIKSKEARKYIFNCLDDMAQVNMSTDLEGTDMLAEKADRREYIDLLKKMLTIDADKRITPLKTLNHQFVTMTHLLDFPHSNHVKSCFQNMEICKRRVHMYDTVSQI
T2 sequence (P49841 whole entry): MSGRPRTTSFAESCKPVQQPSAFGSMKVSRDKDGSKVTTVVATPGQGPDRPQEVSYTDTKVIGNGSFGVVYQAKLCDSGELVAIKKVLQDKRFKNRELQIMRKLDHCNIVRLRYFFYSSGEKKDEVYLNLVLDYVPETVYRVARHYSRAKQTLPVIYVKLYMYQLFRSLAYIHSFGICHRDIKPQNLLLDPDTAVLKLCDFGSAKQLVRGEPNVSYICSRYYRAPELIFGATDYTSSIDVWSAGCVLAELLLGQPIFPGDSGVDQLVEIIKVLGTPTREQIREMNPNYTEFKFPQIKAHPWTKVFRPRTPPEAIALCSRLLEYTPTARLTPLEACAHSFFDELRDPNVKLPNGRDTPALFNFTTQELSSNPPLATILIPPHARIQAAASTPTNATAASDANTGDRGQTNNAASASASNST

| Structure (SMILES) | pIC50 (human HIPK1) | pIC50 (human GSK3 beta) |
| --- | --- | --- |
| CN(C1=N/C(=C\c2ccc3c(c2)OCO3)C(=O)N1)c1ccccc1 [Example 1, (Z)-5-(benzo[d][1,3]dioxol-5-ylmethylene)-2-(methyl(phenyl)amino)-3,5-dihydro-4H-imidazol-4-one] | < 5.00 |  |
| O=C1/C(=C/c2ccc3c(c2)OCO3)N=C(N(Cc2ccccc2)c2ccccc2)N1Cc1ccccc1 [Example 2, (Z)-5-(benzo[d][1,3]dioxol-5-ylmethylene)-3-benzyl-2-(benzyl(phenyl)amino)-3,5-dihydro-4H-imidazol-4-one] | < 5.00 |  |
| CN1C(=O)/C(=C/c2ccc3c(c2)OCO3)N=C1N(C)c1ccccc1 [Example 3, (Z)-5-(benzo[d][1,3]dioxol-5-ylmethylene)-3-methyl-2-(methyl(phenyl)amino)-3,5-dihydro-4H-imidazol-4-one] | < 5.00 |  |
| O=C1NC(Nc2ccccc2)=N/C1=C\c1ccc2ncsc2c1 [Example 6, (Z)-5-(benzo[d]thiazol-6-ylmethylene)-2-(phenylamino)-3,5-dihydro-4H-imidazol-4-one] | 6.00 to 7.00 | 6.00 to 7.00 |
| CN(C1=N/C(=C\c2ccc3ncsc3c2)C(=O)N1)c1ccccc1 [Example 7, (Z)-5-(benzo[d]thiazol-6-ylmethylene)-2-(methyl(phenyl)amino)-3,5-dihydro-4H-imidazol-4-one] | 5.00 to 6.00 | 5.00 to 6.00 |
| CN(C1=N/C(=C\c2ccc3c(c2)OCCO3)C(=O)N1)c1ccccc1 [Example 8, (Z)-5-((2,3-dihydrobenzo[b][1,4]dioxin-6-yl)methylene)-2-(methyl(phenyl)amino)-3,5-dihydro-4H-imidazol-4-one] | < 5.00 | < 5.00 |
| O=C1NC(Nc2ccccc2)=N/C1=C\c1ccc(=O)[nH]c1 [Example 9, (Z)-5-((5-oxo-2-(phenylamino)-1,5-dihydro-4H-imidazol-4-ylidene)methyl)pyridin-2(1H)-one] | < 5.00 | < 5.00 |
| O=C1NC(N(CC2CC2)c2ccccc2)=N/C1=C\c1ccc2c(c1)OCO2 [Example 10, (Z)-5-(benzo[d][1,3]dioxol-5-ylmethylene)-2-((cyclopropylmethyl)(phenyl)amino)-3,5-dihydro-4H-imidazol-4-one] | < 5.00 | < 5.00 |
| CN(CC1CC1)C1=N/C(=C\c2ccc3c(c2)OCO3)C(=O)N1 [Example 11, (Z)-5-(benzo[d][1,3]dioxol-5-ylmethylene)-2-((cyclopropylmethyl)(methyl)amino)-3,5-dihydro-4H-imidazol-4-one] | < 5.00 | < 5.00 |
| COc1ccc(N(C)C2=N/C(=C\c3ccc4c(c3)OCO4)C(=O)N2)cc1 [Example 12, (Z)-5-(benzo[d][1,3]dioxol-5-ylmethylene)-2-((4-methoxyphenyl)(methyl)amino)-3,5-dihydro-4H-imidazol-4-one] | < 5.00 | < 5.00 |
| O=C1NC(N(CCO)c2ccccc2)=N/C1=C\c1ccc2c(c1)OCO2 [Example 13, (Z)-5-(benzo[d][1,3]dioxol-5-ylmethylene)-2-((2-hydroxyethyl)(phenyl)amino)-3,5-dihydro-4H-imidazol-4-one] | 5.00 to 6.00 | 5.00 to 6.00 |
| O=C1NC(Nc2ccccc2)=N/C1=C\c1ccc2scnc2c1 [Example 14, (Z)-5-(benzo[d]thiazol-5-ylmethylene)-2-(phenylamino)-3,5-dihydro-4H-imidazol-4-one] | < 5.00 | < 5.00 |
| O=C1NC(Nc2ccccc2)=N/C1=C\c1cncs1 [Example 15, (Z)-2-(phenylamino)-5-(thiazol-5-ylmethylene)-3,5-dihydro-4H-imidazol-4-one] | < 5.00 | < 5.00 |
| O=C1NC(Nc2ccccc2)=N/C1=C\c1ccc2nccnc2c1 [Example 16, (Z)-2-(phenylamino)-5-(quinoxalin-6-ylmethylene)-3,5-dihydro-4H-imidazol-4-one] | 5.00 to 6.00 | 5.00 to 6.00 |
| CN(C1=N/C(=C\c2ccc3c(c2)OC(F)(F)O3)C(=O)N1)c1ccccc1 [Example 17, (Z)-5-((2,2-difluorobenzo[d][1,3]dioxol-5-yl)methylene)-2-(methyl(phenyl)amino)-3,5-dihydro-4H-imidazol-4-one] | < 5.00 | < 5.00 |
| CN(C1=N/C(=C\c2ccc3c(c2)OCO3)C(=O)N1)c1cccnc1 [Example 18, (Z)-5-(benzo[d][1,3]dioxol-5-ylmethylene)-2-(methyl(pyridin-3-yl)amino)-3,5-dihydro-4H-imidazol-4-one] | < 5.00 | < 5.00 |
| CN(CC1CC1)C1=N/C(=C\c2ccc3c(c2)OCCO3)C(=O)N1 [Example 19, (Z)-2-((cyclopropylmethyl)(methyl)amino)-5-((2,3-dihydrobenzo[b][1,4]dioxin-6-yl)methylene)-3,5-di hydro-4H-imidazol-4-one] | < 5.00 | < 5.00 |
| CN(CCN1CCOCC1)C1=N/C(=C\c2ccc3c(c2)OCO3)C(=O)N1 [Example 20, (Z)-5-(benzo[d][1,3]dioxol-5-ylmethylene)-2-(methyl(2-morpholinoethyl)amino)-3,5-dihydro-4H-imidazol-4-one] | < 5.00 | 5.00 to 6.00 |
| COc1ccccc1N(C)C1=N/C(=C\c2ccc3c(c2)OCO3)C(=O)N1 [Example 21, (Z)-5-(benzo[d][1,3]dioxol-5-ylmethylene)-2-((2-methoxyphenyl)(methyl)amino)-3,5-dihydro-4H-imidazol-4-one] | < 5.00 | < 5.00 |
| O=C1NC(N(Cc2ccccc2)c2ccccc2)=N/C1=C\c1ccc2c(c1)OCO2 [Example 22, (Z)-5-(benzo[d][1,3]dioxol-5-ylmethylene)-2-(benzyl(phenyl)amino)-3,5-dihydro-4H-imidazol-4-one] | < 5.00 | < 5.00 |
| CN(Cc1ccccc1)C1=N/C(=C\c2ccc3c(c2)OCO3)C(=O)N1 [Example 23, (Z)-5-(benzo[d][1,3]dioxol-5-ylmethylene)-2-(benzyl(methyl)amino)-3,5-dihydro-4H-imidazol-4-one] | < 5.00 | < 5.00 |
| CN(C1=N/C(=C\c2ccc3ncsc3c2)C(=O)N1)c1ccc(Cl)cc1 [Example 24, (Z)-5-(benzo[d]thiazol-6-ylmethylene)-2-((4-chlorophenyl)(methyl)amino)-3,5-dihydro-4H-imidazol-4-one] | < 5.00 | < 5.00 |
| COc1ccc(NC2=N/C(=C\c3ccc4ncsc4c3)C(=O)N2)cc1 [Example 25, (Z)-5-(benzo[d]thiazol-6-ylmethylene)-2-((4-methoxyphenyl)amino)-3,5-dihydro-4H-imidazol-4-one] | 6.00 to 7.00 | < 5.00 |

Source: patent publication US12643887B2, “Heterocyclic derivatives with cardiomyocyte proliferation activity for treatment of heart diseases” (Tongji University, priority 2019, dated 2026)
